In PMC12040169 (PLOS Biology, 2025):

Test: in vitro
Settings: human, hela cells, % viability

Row | Structure (SMILES) | viability at 28.5 h, 10 µM [%]
1 | Cc1ccc(OCCCC(=O)Nc2ccc(C(N)=O)cc2)c(C)c1 [CBK268032] | 93.8
2 | CCC(C)(CC(=O)O)CC(=O)N1CCC2(CC1)OCCc1c2[nH]c2ccccc12 (stereo not shown) [CBK047051] | 102
3 | CC(C)(O)c1cn(C2CN(C(=O)c3sccc3-c3ccccc3)C2)nn1 [CBK305442] | 87.6
4 | CNC(=O)CN(C)C(=O)c1coc(COc2ccc3sc(C)nc3c2)n1 [CBK307571] | 83.1
5 | Cc1c(C(=O)N2CCCCC2C(N)=O)nnn1Cc1ccc(F)cc1F (stereo not shown) [CBK304425] | 93.7
6 | Cc1ccc(-c2nsc(SCC(=O)c3ccc(Cl)cc3)n2)cc1 [CBK113177] | 92.1
7 | NC(=O)Cn1cc(CNC2(c3ccccc3)CC2)c2ccccc21 [CBK282776] | 94.9
8 | O=C1NC(=O)C(CC(=O)N2CCCC3(CCN(C(=O)c4cc(F)c(F)cc4F)C3)C2)N1 (stereo not shown) [CBK131550] | 96.2
9 | Cc1ccc(S(=O)(=O)NCCN2CCN(S(=O)(=O)c3ccc(C)cc3)CC2)cc1 [CBK265461] | 115
10 | Cc1cc(NC(=O)Cc2ccsc2)c2ccccc2n1 [CBK116259] | 89.4
11 | C=CCNCc1cc2c(C)nn(-c3ccc(F)cc3)c2[nH]c1=O [CBK283117] | 111
12 | Cn1cc(CN2CCC(c3cncc(-c4cccc(C(F)(F)F)c4)n3)CC2)cn1 [CBK286150] | 78.4
13 | Cc1ccnc(NCC2CCN(CC(=O)NC3(C#N)CCCC3)C2)c1 (stereo not shown) [CBK306128] | 85.8
14 | COCCNC(=O)c1cc(C2CN(CCc3ccccc3)CCO2)nc2ccccc12 (stereo not shown) [CBK285622] | 99.4
15 | COC(=O)c1ccsc1NC(=O)c1cc(-c2ccc(C)o2)nc2ccc(Br)cc12 [CBK267752] | 86.7
16 | Cc1cccc(-c2nc(C3CCCNC3)n3ccccc23)c1 (stereo not shown) [CBK035528] | 92.3
17 | CCC(C)(CC(=O)O)CC(=O)N1CCC2(C1)NCCc1c2[nH]c2ccccc12 (stereo not shown) [CBK047003] | 88.5
18 | CC(Sc1nc(N(C)C)nc(N2CCOCC2)n1)C(=O)Nc1ccc(Cl)c(Cl)c1 (stereo not shown) [CBK269229] | 110
19 | COc1ccc(S(=O)(=O)N2CCC(C(=O)Nc3ccccc3SC)CC2)cc1C [CBK267960] | 96.2
20 | O=C(Nc1cnc(-c2ccc(F)c(Cl)c2)c(-c2cccnc2)n1)c1ccc(N2CCCC2=O)cc1 [CBK036794] | 107
21 | Cc1nnc(SCC(=O)N2c3ccccc3Sc3ccccc32)n1N [CBK265920] | 96.5
22 | COc1ncccc1C(=O)N1Cc2ccccc2C1 [CBK200324] | 101

Row | Structure (SMILES) | viability at 28.5 h, 10 µM [%]
23 | Cc1ccc(NC(=O)CCC(=O)O)c(C(=O)c2ccccc2)c1 [CBK262611] | 108
24 | Cc1nc(NCc2ccc(C(F)(F)F)cc2)nc(N2CCN(C)CC2)n1 [CBK023866] | 112
25 | O=[N+]([O-])c1cc(S(=O)(=O)Nc2ccc3[nH]ncc3c2)ccc1Cl [CBK062537] | 84.6
26 | Cc1ccc([C@@]2(O)CC[C@@H]3CN(S(=O)(=O)C(C)C)C[C@@H]32)cc1 [CBK285297] | 97.8
27 | COc1ccc(N2CCN(c3cncc(-c4cccnc4)n3)CC2)cc1OC [CBK066086] | 90.5
28 | CC1CN(S(=O)(=O)c2ccc3c(c2)C(=O)c2cc(S(=O)(=O)N4CC(C)OC(C)C4)ccc2-3)CC(C)O1 (stereo not shown) [CBK263355] | 101
29 | Cn1c(C(=O)NCCc2cnccn2)cc2cc(Cl)ccc21 [CBK281575] | 90.9
30 | FC(F)(F)c1cc(-c2cc(N3CCN(c4ccccn4)CC3)ncn2)cc(C(F)(F)F)c1 [CBK091082] | 94.5
31 | Cc1nccn1C(=O)NC1CCCCC1 [CBK019187] | 81.8
32 | COc1cc(S(=O)(=O)NCc2ccc3c(c2)OCO3)c(OC)cc1Cl [CBK264972] | 97.1
33 | CCN(CC)CCCNC(=O)N1CCCC(C(=O)N(CC)CC)C1 (stereo not shown) [CBK156149] | 94.1
34 | Cn1c(=O)c2c(nc(NCCN)n2C)n(C)c1=O [CBK268680] | 107
35 | COc1ccc(Cc2n[nH]c(=O)n2-c2ccccc2)cc1 [CBK000112] | 107
36 | CCN(CC)C(=O)N1CCN(Cc2cccc(OC)c2)C[C@@H]1C [CBK284268] | 78.8
37 | COc1ccc(C2(C(=O)NCc3ccc4c(c3)OCO4)CC2)cc1 [CBK149829] | 103
38 | CCc1nc2c(OCCOc3ccccc3)cccn2c1N(C)C(=O)COc1ccccc1 [CBK147355] | 95.2
39 | S=C1C=C(c2ccccc2)Nc2ccccc2N1 [CBK288438] | 87.2
40 | CN(C)CCn1c(=O)oc2ccc(NC(=O)C3CCCO3)cc21 (stereo not shown) [CBK304913] | 93.9
41 | COc1ccc(OCC(O)CN2CCN(c3ccccn3)CC2)cc1 (stereo not shown) [CBK278239C] | 81.8
42 | CCCN(CC1CCCO1)C(=O)c1cc2ccc(OC)cc2n1C (stereo not shown) [CBK282139] | 92.8
43 | CS(=O)(=O)Nc1cc2cccnc2c(-c2ccccc2)n1 [CBK061928] | 95.5
44 | CC(c1ccccc1)C(CC(=O)O)C(=O)NCc1ccccc1 (stereo not shown) [CBK286830] | 101

Row | Structure (SMILES) | viability at 28.5 h, 10 µM [%]
45 | CC(=O)Nc1ccc(S(=O)(=O)N2CCN(S(=O)(=O)c3ccccc3)CC2)cc1 [CBK264163] | 94
46 | COc1cc2c(cc1OC)/C(=C/c1ccc[nH]1)C(=O)N2 [CBK018342] | 57.7
47 | CCC1CCCN(C(=O)Cc2c(C)nc(-c3cccnc3)[nH]c2=O)C1 (stereo not shown) [CBK305801] | 91.7
48 | COc1ccc(OCC(=O)Nc2cc3oc4ccccc4c3cc2OC)cc1 [CBK262608] | 88.5
49 | CCN1CCC(Oc2nccnc2OCCN2CCOCC2)CC1 [CBK082931] | 94.6
50 | COc1ccc(-c2nc(C#N)c(NCCN3CCOCC3)o2)cc1 [CBK265769] | 108
51 | Cc1ccccc1C(=O)NC(NC(=S)Nc1sc2c(c1C(N)=O)CCCC2)C(Cl)(Cl)Cl (stereo not shown) [CBK261047] | 97.9
52 | CC(=O)c1ccc(-c2nccnc2N2CCCC2CO)s1 (stereo not shown) [CBK037483] | 113
53 | COc1ccc(CN(C)c2c(C)nc3c(OCC(=O)C(C)(C)C)cccn23)cc1 [CBK147458] | 100
54 | COc1ccc(CCC(=O)N2CCCCC2c2ncc(-c3cccc(F)c3)[nH]2)cc1OC (stereo not shown) [CBK291148] | 90.3
55 | CN1CCN(c2cc(-c3ccncc3)nc3ccccc23)CC1 [CBK050976B] | 89.1
56 | C=CCn1c(-c2sc(NC(=O)c3cc4ccccc4s3)nc2C)n[nH]c1=S [CBK295303] | 94.8
57 | O=C(O)C[C@@H]1CCN(C(=O)c2ccc3c(c2)OCO3)C[C@@H]1CC1=NCCc2ccccc21 [CBK289160] | 110
58 | COc1ccc(C2CC(c3cccc(Br)c3)Nc3ncnn32)cc1OC (stereo not shown) [CBK294474] | 82.7
59 | Cc1ccc2c(CC(=O)N(C)CCN3CCCCC3)coc2c1 [CBK282747] | 80.5
60 | COc1ccccc1NC(=N)Nc1nc(CSc2nc3ccccc3s2)cc(=O)[nH]1 [CBK269046] | 86
61 | O=C(CN1C(=O)S/C(=C\c2ccc(Cl)cc2)C1=O)Nc1cc([N+](=O)[O-])ccc1O [CBK262396] | 90.4
62 | FC(F)(F)c1nc2ccccc2nc1Sc1ccncc1 [CBK093773] | 92.8
63 | c1ccc(C(NCc2nnc(-c3ccco3)o2)C2CCC2)cc1 (stereo not shown) [CBK305818] | 84.7
64 | CC1(C)CC(=O)c2sc(NS(=O)(=O)c3sc(Cl)cc3Br)nc2C1 [CBK200029] | 109
65 | Fc1ccccc1CN1CCN(Cc2ccccn2)CC1 [CBK265194G] | 100
66 | CN(C1CCCCC1)C1CCN(CCc2ccccc2)CC1 [CBK261918] | 97.5

Row | Structure (SMILES) | viability at 28.5 h, 10 µM [%]
67 | O=C(CSc1nc2[nH]ncc2c(=O)n1-c1ccccc1)Nc1ccc(F)c(Cl)c1 [CBK266453] | 97.6
68 | O=C1Nc2ccccc2C1Cc1cccc(OC(F)F)c1 (stereo not shown) [CBK287892] | 95
69 | COCCn1nnnc1C(c1cc2cc(C)cc(C)c2[nH]c1=O)N1CCOCC1 (stereo not shown) [CBK068815] | 95.3
70 | Cc1ccc(NC(=O)CCSc2nnc3ccccn23)cc1 [CBK265563] | 93.7
71 | COc1ccc(S(=O)(=O)NCCCN2CCOCC2)c(C)c1C [CBK266519] | 110
72 | O=C(NCC1CCCO1)C1CCCN(C(=O)c2cc(-c3ccccn3)[nH]n2)C1 (stereo not shown) [CBK210893] | 91.7
73 | CC(C)N(C(=O)Cn1cccc2cc(C(F)F)nc1-2)C(C)C [CBK285012] | 85.5
74 | COC(=O)C1C(=O)Oc2ccc3ccccc3c2C1C(C)C(=O)c1ccc(Br)cc1 (stereo not shown) [CBK266126] | 114
75 | COCc1cc(C)n(CC(=O)Nc2ccc(N3CCOCC3)cc2)c(=O)c1C#N [CBK270190] | 95.2
76 | CCN(CC)Cc1ccc(C(=O)N2CCC(c3ccncc3)CC2)o1 [CBK283051] | 105
77 | COc1ccc(C(C)C)cc1-c1cnc2cccnc2c1N [CBK081211] | 105
78 | CCc1ccccc1NC(=O)Cc1ccc(OC)cc1 [CBK087898] | 85.7
79 | O=C(c1ccc(NC2CC2)nc1)N1CCC(CN2CCOCC2)CC1 [CBK305970] | 87.6
80 | CCN(CC)C(=O)C1CCCN(C(=O)NCCc2c[nH]c3ccccc23)C1 (stereo not shown) [CBK156140] | 99.8
81 | OC1(CCCN2CCOCC2)C2CCCC1CN(Cc1ccccc1)C2 (stereo not shown) [CBK025076C] | 115
82 | O=C(O)C(Cc1ccccc1)n1cnnn1 (stereo not shown) [CBK021162] | 109
83 | Cc1cccc(-c2cncc(C3CCCN(C(=O)Cc4c[nH]c5ccccc45)C3)n2)c1 (stereo not shown) [CBK286149] | 84.1
84 | O=S(=O)(Nc1ccc(-c2nnn[nH]2)cc1)c1c(F)cccc1F [CBK154734] | 92.2
85 | O=[N+]([O-])c1cccc(CNc2nccnc2-c2ccccc2F)c1 [CBK037416] | 102
86 | C[C@]12CN(CCc3ccccc3)C[C@H]1NC(=O)c1ccccc1C2=O [CBK284704] | 90.3

Same assay, conditions: human, hela cells, % viability, bulk resorufin, single well

Row | Structure (SMILES) | viability at 28.5 h, 10 µM [%]
87 | O=C(NNc1c(Cl)cccc1Cl)C(O)(c1ccccc1)c1ccccc1 [CBK262739] | 101
88 | O=C(O)COc1ccccc1/C=C1\C(=O)NC(=O)N(c2ccc(OCc3ccccc3)cc2)C1=O [CBK265419] | 114
